Test results taken from patent US20190328691A1, “ANTIBIOTIC THERAPY” (Boulos & Cooper Pharmaceuticals Pty Ltd, priority 2015, published 2019).
Where two headings read alike, the source gives them in different places.

What was measured:
[1] = tested on: Staphylococcus aureus (BAA-1717); experiment: Checkerboard combination / MIC assay with S. aureus BAA-1717 (MRSA); type: cell-based; conditions: for Effect of individual antibiotic combinations: S. aureus BAA-1717; for MIC: Staphylococcus aureus, ATCC BAA-1717 / BAA-1717, Table 4, checkerboard series with Chlopam, read-out: MIC of antibiotic alone; for mean FICI of combination with Chlopam: labelled antibiotic + Chlopam; for mean FICI of combination with Chlopam / mean FICI of combination with Ramizol: mean of all pairwise combinations; for mean FICI of combination with Ramizol: labelled antibiotic + Ramizol
Method in brief: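 CLSI broth microdilution checkerboard in CAMHB (5×10^5 CFU/mL, 2% DMSO final). Ramizol or Chlopam was tested in 11-point two-fold series against 7-point antibiotic titrations, starting at 4× MIC.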

[2] = tested on: Staphylococcus aureus (ATCC 29213); experiment: Checkerboard combination / MIC assay with S. aureus ATCC 29213; type: cell-based; conditions: S. aureus ATCC 29213; for MIC: Staphylococcus aureus, read-out: MIC of antibiotic alone; for mean FICI of combination with Chlopam / mean FICI of combination with Ramizol: mean of all pairwise combinations; for mean FICI of combination with Ramizol: labelled antibiotic + Ramizol
Method in brief: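 CLSI broth microdilution checkerboard in CAMHB, final inoculum 5×10^5 CFU/mL, 2% DMSO. Ramizol or Chlopam (11-point 2-fold) crossed with commercial antibiotics (7-point), each starting at 4× MIC; synergy assessed by FIC index (sum of MIC-in-combination/MIC-alone ratios; ≤0.5 synergy, >4 antagonism).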

[3] = Chlopam 0.001953 μg/mL + labelled antibiotic at MIC of same cell, S. aureus ATCC BAA-1717
[4] = Chlopam 0.001953 μg/mL, S. aureus ATCC BAA-1717
[5] = Chlopam 0.003906 μg/mL + labelled antibiotic at MIC of same cell, S. aureus ATCC BAA-1717
[6] = Chlopam 0.003906 μg/mL, S. aureus ATCC BAA-1717
[7] = Chlopam 0.0078125 μg/mL + labelled antibiotic at MIC of same cell, S. aureus ATCC BAA-1717
[8] = Chlopam 0.0078125 μg/mL, S. aureus ATCC BAA-1717
[9] = Chlopam 0.015625 μg/mL + labelled antibiotic at MIC of same cell, S. aureus ATCC BAA-1717
[10] = Chlopam 0.015625 μg/mL, S. aureus ATCC BAA-1717
[11] = Ramizol 0.015625 μg/mL + labelled antibiotic at MIC of same cell, S. aureus ATCC BAA-1717
[12] = Ramizol 0.015625 μg/mL, S. aureus ATCC BAA-1717
[13] = Ramizol 0.03125 μg/mL + labelled antibiotic at MIC of same cell, S. aureus ATCC BAA-1717
[14] = Ramizol 0.03125 μg/mL, S. aureus ATCC BAA-1717
[15] = Ramizol 0.0625 μg/mL + labelled antibiotic at MIC of same cell, S. aureus ATCC BAA-1717
[16] = Ramizol 0.0625 μg/mL, S. aureus ATCC BAA-1717
[17] = Ramizol 0.125 μg/mL + labelled antibiotic at MIC of same line, S. aureus ATCC BAA-1717
[18] = Ramizol 0.125 μg/mL, S. aureus ATCC BAA-1717
[19] = Chlopam 0.003906 μg/mL + labelled antibiotic at MIC of same cell
[20] = Chlopam 0.0078125 μg/mL + labelled antibiotic at MIC of same cell
[21] = Chlopam 0.015625 μg/mL + labelled antibiotic at MIC of same cell
[22] = Chlopam 0.25 μg/mL + labelled antibiotic at MIC of same cell
[23] = Ramizol 0.015625 μg/mL + labelled antibiotic at MIC of same cell
[24] = Ramizol 0.03125 μg/mL + labelled antibiotic at MIC of same cell
[25] = Ramizol 0.0625 μg/mL + labelled antibiotic at MIC of same cell
[26] = Ramizol 0.125 μg/mL + labelled antibiotic at MIC of same cell
[27] = Ramizol 0.25 μg/mL + labelled antibiotic at MIC of same cell
[28] = ATCC29213, Table 4, checkerboard series with Chlopam
[29] = ATCC29213, Table 7, checkerboard series with Ramizol

CC(=O)NC[C@H]1CN(c2ccc(N3CCOCC3)c(F)c2)C(=O)O1 [Linezolid]
FICI of combination with Chlopam [1, 3]: 1.0
MIC of antibiotic in combination with Chlopam [1, 4]: 1 µg/mL
FICI of combination with Chlopam [1, 5]: 1.0
MIC of antibiotic in combination with Chlopam [1, 6]: 1 µg/mL
FICI of combination with Chlopam [1, 7]: 1.0
MIC of antibiotic in combination with Chlopam [1, 8]: 1 µg/mL
FICI of combination with Chlopam [1, 9]: 1.0
MIC of antibiotic in combination with Chlopam [1, 10]: 1 µg/mL
Effect of individual antibiotic combinations ([1]; Chlopam and Linezolid: 0.001953 and 1, 0.003901 and 1, 0.0078125 and 1, 0.015625 and 1 μg/mL): additive effect
FICI of combination with Ramizol [1, 11]: 1.0
MIC of antibiotic in combination with Ramizol [1, 12]: 1 µg/mL
FICI of combination with Ramizol [1, 13]: 1.0
MIC of antibiotic in combination with Ramizol [1, 14]: 1 µg/mL
FICI of combination with Ramizol [1, 15]: 1.0
MIC of antibiotic in combination with Ramizol [1, 16]: 1 µg/mL
FICI of combination with Ramizol [1, 17]: 1.0
MIC of antibiotic in combination with Ramizol [1, 18]: 1 µg/mL
Effect of individual antibiotic combinations ([1]; Ramizol and linezolid: 0.015625 and 1, 0.03125 and 1, 0.0625 and 1, 0.125 and 1 μg/mL): additive effect
MIC ([1]; S. aureus ATCC BAA-1717): 1 µg/mL
MIC of antibiotic alone ([1]; Table 7, checkerboard series with Ramizol, S. aureus ATCC BAA-1717): 1 µg/mL
mean FICI of combination with Chlopam ([1]; S. aureus ATCC BAA-1717): 1.2
mean FICI of combination with Ramizol ([1]; S. aureus ATCC BAA-1717): 1.2
FICI of combination with Chlopam [2, 19]: 1.0
MIC of antibiotic in combination with Chlopam ([2]; Chlopam 0.003906 μg/mL): 2 µg/mL
FICI of combination with Chlopam [2, 20]: 1.0
MIC of antibiotic in combination with Chlopam ([2]; Chlopam 0.0078125 μg/mL): 2 µg/mL
FICI of combination with Chlopam [2, 21]: 1.0
MIC of antibiotic in combination with Chlopam ([2]; Chlopam 0.015625 μg/mL): 2 µg/mL
FICI of combination with Chlopam ([2]; Chlopam 0.125 μg/mL + labelled antibiotic at MIC of same line): 0.8
MIC of antibiotic in combination with Chlopam ([2]; Chlopam 0.125 μg/mL): 1 µg/mL
FICI of combination with Chlopam [2, 22]: 0.8
MIC of antibiotic in combination with Chlopam ([2]; Chlopam 0.25 μg/mL): 0.5 µg/mL
FICI of combination with Chlopam ([2]; Chlopam 0.5 μg/mL + labelled antibiotic at MIC of same cell): 0.6
MIC of antibiotic in combination with Chlopam ([2]; Chlopam 0.5 μg/mL): 0.25 µg/mL
Effect of individual antibiotic combinations ([2]; Chlopam and Linezolid: 0.003901 and 2, 0.0078125 and 2, 0.015625 and 2, 0.125 and 1, 0.25 and 0.5, 0.5 and 0.25 μg/mL): additive effect
FICI of combination with Ramizol [2, 23]: 1.0
MIC of antibiotic in combination with Ramizol ([2]; Ramizol 0.015625 μg/mL): 4 µg/mL
FICI of combination with Ramizol [2, 24]: 1.0
MIC of antibiotic in combination with Ramizol ([2]; Ramizol 0.03125 μg/mL): 4 µg/mL
FICI of combination with Ramizol [2, 25]: 1.0
MIC of antibiotic in combination with Ramizol ([2]; Ramizol 0.0625 μg/mL): 4 µg/mL
FICI of combination with Ramizol [2, 26]: 1.0
MIC of antibiotic in combination with Ramizol ([2]; Ramizol 0.125 μg/mL): 4 µg/mL
FICI of combination with Ramizol [2, 27]: 1.0
MIC of antibiotic in combination with Ramizol ([2]; Ramizol 0.25 μg/mL): 4 µg/mL
Effect of individual antibiotic combinations ([2]; Ramizol and linezolid: 0.015625 and 4, 0.03125 and 4, 0.0625 and 4, 0.125 and 4, 0.25 and 4 μg/mL): additive effect
MIC [2, 28]: 2 µg/mL
MIC [2, 29]: 4 µg/mL
Effect of the combinations with Chlopam (by mean FICI) ([2]; labelled antibiotic + Chlopam): additive effect
mean FICI of combination with Chlopam ([2]; labelled antibiotic + Chlopam): 0.9
mean FICI of combination with Ramizol [2]: 1.1

C/C(=C\C(=O)OCCCCCCCCC(=O)O)C[C@@H]1OC[C@H](C[C@@H]2O[C@H]2[C@@H](C)[C@H](C)O)[C@@H](O)[C@H]1O [Mupirocin]
FICI of combination with Chlopam [1, 3]: 1.0
MIC of antibiotic in combination with Chlopam [1, 4]: 0.5 µg/mL
FICI of combination with Chlopam [1, 5]: 1.0
MIC of antibiotic in combination with Chlopam [1, 6]: 0.5 µg/mL
FICI of combination with Chlopam [1, 7]: 1.0
MIC of antibiotic in combination with Chlopam [1, 8]: 0.5 µg/mL
FICI of combination with Chlopam [1, 9]: 1.0
MIC of antibiotic in combination with Chlopam [1, 10]: 0.5 µg/mL
FICI of combination with Chlopam ([1]; Chlopam 0.5 μg/mL + labelled antibiotic at MIC of same line, S. aureus ATCC BAA-1717): 1.0
MIC of antibiotic in combination with Chlopam ([1]; Chlopam 0.5 μg/mL, S. aureus ATCC BAA-1717): 0.016 µg/mL
Effect of individual antibiotic combinations ([1]; Chlopam and mupirocin: 0.001953 and 0.5, 0.003901 and 0.5, 0.0078125 and 0.5, 0.015625 and 0.5, 0.5 and 0.016 μg/mL): additive effect
FICI of combination with Ramizol [1, 11]: 1.0
MIC of antibiotic in combination with Ramizol [1, 12]: 0.5 µg/mL
FICI of combination with Ramizol [1, 13]: 1.0
MIC of antibiotic in combination with Ramizol [1, 14]: 0.5 µg/mL
FICI of combination with Ramizol [1, 15]: 1.0
MIC of antibiotic in combination with Ramizol [1, 16]: 0.5 µg/mL
FICI of combination with Ramizol [1, 17]: 1.0
MIC of antibiotic in combination with Ramizol [1, 18]: 0.5 µg/mL
FICI of combination with Ramizol ([1]; Ramizol 4 μg/mL + labelled antibiotic at MIC of same cell, S. aureus ATCC BAA-1717): 1.0
MIC of antibiotic in combination with Ramizol ([1]; Ramizol 4 μg/mL, S. aureus ATCC BAA-1717): 0.016 µg/mL
Effect of individual antibiotic combinations ([1]; Ramizol and mupirocin: 0.015625 and 0.5, 0.03125 and 0.5, 0.0625 and 0.5, 0.125 and 0.5, 4 and 0.016 μg/mL): additive effect
MIC ([1]; S. aureus ATCC BAA-1717): 0.5 µg/mL
mean FICI of combination with Chlopam ([1]; S. aureus ATCC BAA-1717): 1.2
mean FICI of combination with Ramizol ([1]; S. aureus ATCC BAA-1717): (1.2)
FICI of combination with Chlopam [2, 19]: 1.0
MIC of antibiotic in combination with Chlopam ([2]; Chlopam 0.003906 μg/mL): 0.5 µg/mL
FICI of combination with Chlopam [2, 20]: 1.0
MIC of antibiotic in combination with Chlopam ([2]; Chlopam 0.0078125 μg/mL): 0.5 µg/mL
FICI of combination with Chlopam [2, 21]: 1.0
MIC of antibiotic in combination with Chlopam ([2]; Chlopam 0.015625 μg/mL): 0.5 µg/mL
FICI of combination with Chlopam [2, 22]: 1.0
MIC of antibiotic in combination with Chlopam ([2]; Chlopam 0.25 μg/mL): 0.25 µg/mL
Effect of individual antibiotic combinations ([2]; Chlopam and mupirocin: 0.003901 and 0.5, 0.0078125 and 0.5, 0.015625 and 0.5, 0.25 and 0.25 μg/mL): additive effect
FICI of combination with Ramizol [2, 23]: 1.0
MIC of antibiotic in combination with Ramizol ([2]; Ramizol 0.015625 μg/mL): 0.5 µg/mL
FICI of combination with Ramizol [2, 24]: 1.0
MIC of antibiotic in combination with Ramizol ([2]; Ramizol 0.03125 μg/mL): 0.5 µg/mL
FICI of combination with Ramizol [2, 25]: 1.0
MIC of antibiotic in combination with Ramizol ([2]; Ramizol 0.0625 μg/mL): 0.5 µg/mL
FICI of combination with Ramizol [2, 26]: 1.0
MIC of antibiotic in combination with Ramizol ([2]; Ramizol 0.125 μg/mL): 0.5 µg/mL
FICI of combination with Ramizol [2, 27]: 1.0
MIC of antibiotic in combination with Ramizol ([2]; Ramizol 0.25 μg/mL): 0.5 µg/mL
Effect of individual antibiotic combinations ([2]; Ramizol and mupirocin: 0.015625 and 0.5, 0.03125 and 0.5, 0.0625 and 0.5, 0.125 and 0.5, 0.25 and 0.5 μg/mL): additive effect
MIC [2, 28]: 0.5 µg/mL
MIC [2, 29]: 0.5 µg/mL
mean FICI of combination with Chlopam ([2]; labelled antibiotic + Chlopam): 1.1
mean FICI of combination with Ramizol [2]: 1.1
